Assays:
[1] = tested on: optimized anaerobic microbial mix; assay: Test 3: comparison of fermentation in the presence or absence of octanoic acid; format: cell-based; conditions: restoration waste 50 g/l dry matter, initial addition of 0.7 g/l
Description: Two fermentations of grass cuttings/mowings in non-sterile mode, at a concentration of 25 g/l of dry matter, in an anaerobic bioreactor with a working volume of 2 l, operated in mesophilic mode (38° C.), were carried out in parallel for 160 h. In the first experiment, after inoculation of an optimized anaerobic microbial mix, an initial addition of heptanoic acid in an amount of 2.8 g/l was carried out. […] The second fermentation, which is de facto a control culture, was carried out in parallel under the same conditions except for the addition of heptanoic acid.

[2] = tested on: optimized anaerobic microbial mix; assay: Test 2: comparison of fermentations in the presence or absence of heptanoic acid; format: cell-based; conditions: grass cuttings/mowings 25 g/l dry matter, 38° C., 160 h, initial addition of 2.8 g/l
Description: Two fermentations of grass cuttings/mowings in non-sterile mode, at a concentration of 25 g/l of dry matter, in an anaerobic bioreactor with a working volume of 2 l, operated in mesophilic mode (38° C.), were carried out in parallel for 160 h. In the first experiment, after inoculation of an optimized anaerobic microbial mix, an initial addition of heptanoic acid in an amount of 2.8 g/l was carried out. This presence of heptanoic acid makes it possible to understand the biocompatible nature of an extraction carried out with this type of solvent. Indeed, the culture medium after extraction is reintroduced into the bioreactor and may contain traces of extraction solvent up to the amount of their solubility threshold. The second fermentation, which is de facto a control culture, was carried out in parallel under the same conditions except for the addition of heptanoic acid.
During these fermentations, liquid-phase and gas-phase metabolite monitorings were carried out. At the end of fermentation, the yields obtained regarding the production of volatile fatty acids is 0.33 g of VFA/g of dry matter in the case of the experiment with the addition of heptanoic acid, and 0.39 g of VFA/g of dry matter for the control fermentation. […]

Row | SMILES | yield of production of volatile fatty acids at the end of fermentation [1] | negative effect on the production of volatile fatty acids versus control fermentation [2] | yield of production of volatile fatty acids at the end of fermentation [2]
1 | CCCCCCCC(=O)O [octanoic acid, Octanoic acid] | 0.3 g of VFA/g of dry matter |  | 
2 | CCCCCCC(=O)O [heptanoic acid, Heptanoic acid] |  | about 15% | 0.33 g of VFA/g of dry matter
